Structures are written as SMILES. Some results are limits rather than exact numbers.

BACE, sequence (P56817 46-501): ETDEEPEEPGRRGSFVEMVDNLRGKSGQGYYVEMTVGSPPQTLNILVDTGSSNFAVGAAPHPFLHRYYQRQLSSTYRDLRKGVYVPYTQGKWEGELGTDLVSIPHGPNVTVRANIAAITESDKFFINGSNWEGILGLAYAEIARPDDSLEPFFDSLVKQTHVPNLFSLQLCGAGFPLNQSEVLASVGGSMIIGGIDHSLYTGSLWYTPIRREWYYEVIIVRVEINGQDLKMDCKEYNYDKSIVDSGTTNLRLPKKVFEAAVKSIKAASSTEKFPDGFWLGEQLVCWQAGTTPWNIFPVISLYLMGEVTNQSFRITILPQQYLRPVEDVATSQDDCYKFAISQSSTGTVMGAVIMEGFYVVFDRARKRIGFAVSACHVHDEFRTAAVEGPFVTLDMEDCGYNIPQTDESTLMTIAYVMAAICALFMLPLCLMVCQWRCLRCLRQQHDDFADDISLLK

The target of the experiment is BACE (Homo sapiens, UniProt P56817). The experiment can be described thus: Ki Determination for the Inhibition of BACE (FS-1 peptide fluorescence cleavage assay). It is filed as biochemical. As to conditions: apparent Ki; 50 nM BACE, 10 μM FS-1 substrate, 0.1M sodium acetate pH 4.5. In short, it runs like this:
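Apparent Ki values derive from fitting fluorescence progress data (355 nm excitation, 495 nm emission) of FS-1 peptide cleavage to an integrated competitive tight-binding model. Reactions held 50 nM BACE, 10 μM substrate and inhibitor in 2% DMSO, pH 4.5 acetate buffer, with a 15 min enzyme-compound preincubation at room temperature.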
As for `FC(F)(F)c1ccc(-c2cc(COc3ccccc3C(F)(F)F)c(C3=CCNCC3)cc2COc2ccccc2C(F)(F)F)cc1` [Compound 338, 4-[4′-Trifluoromethyl-2,5-bis-(2-trifluoromethyl-phenoxymethyl)-biphenyl-4-yl]-1,2,3,6-tetrahydro-pyridine], the Ki is 3 to 30 µM.
For `FC(F)(F)c1ccccc1OCc1cc(-c2ccc3ccccc3c2)c(COc2ccccc2C(F)(F)F)cc1C1=CCNCC1` [Compound 339, 4-[4-Naphthalen-2-yl-2,5-bis-(2-trifluoromethyl-phenoxymethyl)-phenyl]-1,2,3,6-tetrahydro-pyridine], the Ki is 3 to 30 µM.
Consider `FC(F)(F)c1ccccc1OCc1cc(-c2cccnc2)c(COc2ccccc2C(F)(F)F)cc1C1=CCNCC1` [Compound 340, 3-[4-(1,2,3,6-Tetrahydro-pyridin-4-yl)-2,5-bis-(2-trifluoromethyl-phenoxymethyl)-phenyl]-pyridine], for which the Ki is less than 3 µM.
Regarding `FC(F)(F)c1ccccc1OCc1cc(-c2ccncc2)c(COc2ccccc2C(F)(F)F)cc1C1=CCNCC1` [Compound 341, 4-[4-(1,2,3,6-Tetrahydro-pyridin-4-yl)-2,5-bis-(2-trifluoromethyl-phenoxymethyl)-phenyl]-pyridine], the Ki is less than 3 µM.
Consider `FC(F)(F)c1ccccc1OCc1cc(-c2ccsc2)c(COc2ccccc2C(F)(F)F)cc1C1=CCNCC1` [Compound 342, 4-[4-Thiophen-3-yl-2,5-bis-(2-trifluoromethyl-phenoxymethyl)-phenyl]-1,2,3,6-tetrahydro-pyridine], for which the Ki was less than 3 µM.
For `FC(F)(F)c1ccccc1OCc1cc(-c2ccoc2)c(COc2ccccc2C(F)(F)F)cc1C1=CCNCC1` [Compound 343, 4-[4-Furan-3-yl-2,5-bis-(2-trifluoromethyl-phenoxymethyl)-phenyl]-1,2,3,6-tetrahydro-pyridine] the value was less than 3 µM.
To `O=[N+]([O-])c1ccccc1-c1cc(COc2ccccc2C(F)(F)F)c(C2=CCNCC2)cc1COc1ccccc1C(F)(F)F` [Compound 344, 4-[2′-Nitro-2,5-bis-(2-trifluoromethyl-phenoxymethyl)-biphenyl-4-yl]-1,2,3,6-tetrahydro-pyridine] belongs less than 3 µM.
With `FC(F)(F)c1ccccc1OCc1cc(-c2cccs2)c(COc2ccccc2C(F)(F)F)cc1C1=CCNCC1` [Compound 345, 4-[4-Thiophen-2-yl-2,5-bis-(2-trifluoromethyl-phenoxymethyl)-phenyl]-1,2,3,6-tetrahydro-pyridine], the Ki is less than 3 µM.
Regarding `FC(F)(F)c1ccccc1OCc1cc(-c2ccco2)c(COc2ccccc2C(F)(F)F)cc1C1=CCNCC1` [Compound 346, 4-[4-Furan-2-yl-2,5-bis-(2-trifluoromethyl-phenoxymethyl)-phenyl]-1,2,3,6-tetrahydro-pyridine], the Ki is less than 3 µM.
For `Fc1ccccc1-c1cc(COc2ccccc2C(F)(F)F)c(C2=CCNCC2)cc1COc1ccccc1C(F)(F)F` [Compound 347, 4-[2′-Fluoro-2,5-bis-(2-trifluoromethyl-phenoxymethyl)-biphenyl-4-yl]-1,2,3,6-tetrahydro-pyridine], the Ki is less than 3 µM.
On to `FC(F)(F)c1ccccc1OCc1cc(-c2ccccc2Cl)c(COc2ccccc2C(F)(F)F)cc1C1=CCNCC1` [Compound 348, 4-[2′-Chloro-2,5-bis-(2-trifluoromethyl-phenoxymethyl)-biphenyl-4-yl]-1,2,3,6-tetrahydro-pyridine], for which the Ki is less than 3 µM.
With `Fc1cccc(F)c1-c1cc(COc2ccccc2C(F)(F)F)c(C2=CCNCC2)cc1COc1ccccc1C(F)(F)F` [Compound 349, 4-[2′,6′-Difluoro-2,5-bis-(2-trifluoromethyl-phenoxymethyl)-biphenyl-4-yl]-1,2,3,6-tetrahydro-pyridine], the Ki was less than 3 µM.
To `CC(=O)c1ccccc1-c1cc(COc2ccccc2C(F)(F)F)c(C2=CCNCC2)cc1COc1ccccc1C(F)(F)F` [Compound 350, 1-[4′-(1,2,3,6-Tetrahydro-pyridin-4-yl)-2′,5′-bis-(2-trifluoromethyl-phenoxymethyl)-biphenyl-2-yl]-ethanone] belongs less than 3 µM.

These data come from US20030095958A1, “Inhibitors of bace” (priority 2001, published 2003).
